From patent publication US10716869B2, “Radiolabeled macrocyclic EGFR inhibitor” (Oncodesign SA, priority 2016, dated 2020)

Experiments:
[1] = biodistribution in tumor-bearing Nude rats (ex vivo gamma counting)
Procedure: Dynamic PET scan imaging and ex vivo gamma counting were performed on three cancer xenografts (NCI-H441, NCI-H3255, NCI-H1975) in Nude rats. Xenografts were initiated in athymic, Hsd:RH-Foxnlrnu rats (Harlan, The Netherlands) by subcutaneous injection of 2×10^7 cells in 200 μL RPMI 1640 in the left and right flanks. NCI-H3255 tumor cells were injected in the right flank and NCI-H441 or NCI-H1975 in the left flank. Each study consisted in two experiments on 18 or 19 rats, for a total of 113 rats. Injection of NCI-H3255 cells was performed on DO, 24 to 72 hours after a whole-body irradiation with a […] (5 Gy, ^60Co, BioMep SARL, Bretenières, France). […]
The radiotracer solution was diluted in NaCl 0.9% to prepare a solution of activity 4-6 MBq (gamma-counting experiments) or 25-35 MBq (PET imaging experiments) in a volume of 300-400 or 600-800 μL, respectively. The radioactivity in the syringe was measured before and after tracer injection to determine the injected dose (ID) to animals. […]
For ex vivo gamma counting, after the determined uptake period or after imaging, rats were euthanized by decapitation, and the following organs were harvested and weighed: tumor, kidneys, blood, liver, heart, tail, thigh muscle, lungs, spleen and skin. Tracer distribution was assessed by determining ^18F content in each tissue with a gamma-well counter (PerkinElmer 2480 Wizard2 3). […]

NCI-H1975 tumors = test: tumor uptake in xenograft-bearing Nude rats; format: in vivo; conditions: NCI-H1975, at 180 min
Procedure: (§1) Dynamic PET scan imaging and ex vivo gamma counting were performed on three cancer xenografts (NCI-H441, NCI-H3255, NCI-H1975) in Nude rats. Xenografts were initiated in athymic, Hsd:RH-Foxnlrnu rats (Harlan, The Netherlands) by subcutaneous injection of 2×10^7 cells in 200 μL RPMI 1640 in the left and right flanks. NCI-H3255 tumor cells were injected in the right flank and NCI-H441 or NCI-H1975 in the left flank. Each study consisted in two experiments on 18 or 19 rats, for a total of 113 rats. Injection of NCI-H3255 cells was performed on DO, 24 to 72 hours after a whole-body irradiation with a […] (5 Gy, ^60Co, BioMep SARL, Bretenières, France). […] Tumors were grown until a target volume of 500-1500 mm^3 for both tumors was reached, whenever possible. All procedures using animals were approved by the Animal Care and Use Committee of Oncodesign (CNREEA agreement No 91).
(§2) The radiotracer solution was diluted in NaCl 0.9% to prepare a solution of activity 4-6 MBq (gamma-counting experiments) or 25-35 MBq (PET imaging experiments) in a volume of 300-400 or 600-800 μL, respectively. The radioactivity in the syringe was measured before and after tracer injection to determine the injected dose (ID) to animals. Rats were anesthetized with inhaled isoflurane (2% in air) for compound injection and throughout the course of image acquisition. After compound injection, rats were allowed to wake up and put back in their cage for an uptake period ranging from 20 to 120 minutes depending on the experiment.
(§3) For ex vivo gamma counting, after the determined uptake period or after imaging, rats were euthanized by decapitation, and the following organs were harvested and weighed: tumor, kidneys, blood, liver, heart, tail, thigh muscle, lungs, spleen and skin. Tracer distribution was assessed by determining ^18F content in each tissue with a gamma-well counter (PerkinElmer 2480 Wizard2 3). Counting data are reported as % ID per gram of tissue (% ID/g). Once radioactivity in organs was measured, some samples were prepared for immunohistochemistry.
(§4) For imaging experiments, rats were positioned prone in a dedicated rat imaging chamber (Minerve, France). Their body temperature was maintained by a flow of warm air through the structure of the imaging bed. PET imaging was performed on a microPET eXplore Vista CT (General Electric Healthcare) system. The Vista system, equipped with 36 dual-layer LYSO/GSO phoswich detector modules, has an effective axial/transaxial field of view of 4.8/6.7 cm. The spatial resolution is <2 mm in all directions and in the whole field of view. The sensitivity is above 2.5% in the whole field of view. After a scout image to adjust the position of the field of view, a CT scan was acquired (140 μA, 40 kV). […]

NCI-H3255 tumors = test: tumor uptake in xenograft-bearing Nude rats; format: in vivo
Procedure: as §1, §2, §3, §4

NCI-H441 tumors = test: tumor uptake in xenograft-bearing Nude rats; format: in vivo; conditions: NCI-H441, at 180 min
Procedure: as §1, §2, §3, §4

## CC(C)C1NC(=O)Cc2ccc(Cl)cc2Nc2ncnc3cc(OCC[18F])c(cc23)OCCCNC1=O (stereo not drawn) [Compound (I)]
[1]; after 45 min
  uptake in blood: < 0.05 % ID/g
[1]; at 90 min
  absolute uptake in tumors: < 0.5 % ID/g
NCI-H1975 tumors
  normalized uptake (tumor over muscle): 3.6
NCI-H3255 tumors; NCI-H3255, at 180 min
  normalized uptake (tumor over muscle): 12
NCI-H3255 tumors; stable between 90 min and 180 min
  uptake in NCI-H3255 tumors: around 0.2 % ID/g
NCI-H441 tumors
  normalized uptake (tumor over muscle): 2.6
